Counter-ions that a name gives are not always drawn.
System: HBV rcDNA in HepDE19 cells
Test: HepDE19 assay with bDNA quantitation of HBV rcDNA
Format: cell-based, hepatitis B virus (HBV)
Conditions: HepDE19 cells, inhibition of rcDNA formation, 7 day incubation, top concentration 25 μM; read-out: DE-19 bDNA EC50
Protocol: HepDE19 Assay with bDNA Quantitation of HBV rcDNA:
HepDE19 cell culture system is a HepG2 (human hepatocarcinoma) derived cell line that supports HBV DNA replication and cccDNA formation in a tetracycline (Tet)-regulated manner and produces HBV rcDNA and a detectable reporter molecule dependent on the production and maintenance of cccDNA (Guo, et al., 2007, J. Virol. 81:12472-12484).
HepDE19 (50,000 cells/well) were plated in 96-well collagen-coated tissue-culture treated microtiter plates in DMEM/F12 medium supplemented with 10% fetal bovine serum, 1% penicillin-streptomycin and 1 μg/mL tetracycline and incubated in a humidified incubator at 37° C. and 5% CO2 overnight. Next day, the cells were switched to fresh medium without tetracycline and incubated for 4 hours at 37° C. and 5% CO2. The cells were treated with fresh Tet-free medium with compounds at concentrations starting at 25 μM and a serial, ½ log, 8-point, titration series in duplicate. The final DMSO concentration in the assay was 0.5%. The plates were incubated for 7 days in a humidified incubator at 37° C. and 5% CO2. Following a 7 day-incubation, the level of rcDNA present in the inhibitor-treated wells was measured using a Quantigene 2.0 bDNA assay kit (Affymetrix, Santa Clara, Calif.) with HBV specific custom probe set and manufacturers instructions. Concurrently, the effect of compounds on cell viability was assessed using replicate plates, plated at a density of 5,000 cells/well and incubated for 4 days, to determine the ATP content as a measure of cell viability using the cell-titer glo reagent (CTG; Promega Corporation, Madison, Wis.) as per manufacturer's instructions. The plates were read using a Victor luminescence plate reader (PerkinElmer Model 1420 Multilabel counter) and the relative luminescence units (RLU) data generated from each well was calculated as % inhibition of the untreated control wells and analyzed using XL-Fit module in Microsoft Excel to determine EC50 and EC90 (bDNA) and CC50 (CTG) values using a 4-parameter curve fitting algorithm.
Representative compounds of the invention were tested for their abilities to inhibit formation of relaxed circular DNA (rcDNA) in a HepDE19 assay, as described elsewhere herein.

Point of comparison: `O=C(NC1CSc2c(C(=O)Nc3ccc(F)c(F)c3)ccc(F)c21)OCc1ccccn1` (stereo not drawn) [Compound 64, O-Pyridin-2-ylmethyl, N-(7-((3,4-difluorophenyl)carbamoyl)-4-fluoro-2,3-dihydrobenzo[b]thiophen-3-yl) carbamate], EC50 0.84 µM. Against it:
- O=C(NC1CSc2c(C(=O)Nc3ccc(F)c(Cl)c3)ccc(F)c21)OCc1ccccn1 (stereo not drawn) [Compound 65, O-Pyridin-2-ylmethyl, N-(7-((3-chloro-4-fluorophenyl)carbamoyl)-4-fluoro-2,3-dihydrobenzo[b]thiophen-3-yl) carbamate] — higher, > 25 µM

Same assay, conditions: Hepatitis B virus, HepDE19, 168 h, HepDE19 cells, inhibition of rcDNA formation, 7 day incubation, top concentration 25 μM; read-out: DE-19 bDNA EC50

Point of comparison: `CC(C)(C)[S@+]([O-])N[C@H]1CCc2c(C(=O)Nc3ccc(F)c(Cl)c3)ccc(F)c21` [Compound 280, (S)-1-(((S)-tert-Butylsulfinyl)amino)-N-(3-chloro-4-fluorophenyl)-7-fluoro-2,3-dihydro-1H-indene-4-carboxamide], EC50 4.6 µM. Against it:
- O=C(Nc1ccc(F)c(Cl)c1)c1ccc(F)c2c1CC[C@@H]2NS(=O)(=O)C1CC1 [Compound 128, (S)—N-(3-Chloro-4-fluorophenyl)-1-(cyclopropanesulfonamido)-7-fluoro-2,3-dihydro-1H-indene-4-carboxamide] — 110-fold lower, 0.04 µM
- O=C(N[C@H]1CCc2c(C(=O)Nc3ccc(F)c(Cl)c3)ccc(F)c21)c1ccccn1 [Compound 115, (S)—N-(4-((3-Chloro-4-fluorophenyl)carbamoyl)-7-fluoro-2,3-dihydro-1H-inden-1-yl)picolinamide] — 2.1-fold lower, 2.2 µM
- O=C(NC1CCc2c(C(=O)Nc3ccc(F)c(Cl)c3)cncc21)OCc1ccccn1 (single isomer, unassigned) [Compound 271, O-Pyridin-2-ylmethyl, N-(4-((3-chloro-4-fluorophenyl)carbamoyl)-6,7-dihydro-5H-cyclopenta[c]pyridin-7-yl)carbamate] — within 1.5-fold, 5.7 µM
- O=C1C[C@H](OC(=O)N[C@H]2CCc3c(C(=O)Nc4ccc(F)c(Cl)c4)ccc(F)c32)CN1 [Compound 166, O—(S)-5-Oxopyrrolidin-3-yl, N—((S)-4-((3-chloro-4-fluorophenyl)carbamoyl)-7-fluoro-2,3-dihydro-1H-inden-1-yl) carbamate] — 33-fold lower, 0.14 µM
- COC(=O)NC1c2c(F)ccc(C(=O)Nc3ccc(F)c(Cl)c3)c2CC1OC (stereo not drawn) [Compound 236, O-methyl, N-(4-((3-chloro-4-fluorophenyl)carbamoyl)-7-fluoro-2-methoxy-2,3-dihydro-1H-inden-1-yl)carbamate] — 14-fold lower, 0.34 µM
- O=C(CN1CCOCC1)N[C@H]1CCc2c(C(=O)Nc3ccc(F)c(Cl)c3)ccc(F)c21 [Compound 118, (S)—N-(3-Chloro-4-fluorophenyl)-7-fluoro-1-(2-morpholinoacetamido)-2,3-dihydro-1H-indene-4-carboxamide] — 2.1-fold lower, 2.2 µM
- O=C(N[C@H]1CCc2c(C(=O)Nc3ccc(F)c(Cl)c3)ccc(F)c21)c1cncs1 [Compound 116, (S)—N-(4-((3-Chloro-4-fluorophenyl)carbamoyl)-7-fluoro-2,3-dihydro-1H-inden-1-yl)thiazole-5-carboxamide] — 2.7-fold lower, 1.7 µM
- O=C(NC1CC1)N[C@H]1CCc2c(C(=O)Nc3ccc(F)c(Cl)c3)ccc(F)c21 [Compound 209, (S)—N-(3-Chloro-4-fluorophenyl)-1-(3-cyclopropylureido)-7-fluoro-2,3-dihydro-1H-indene-4-carboxamide] — 14-fold lower, 0.33 µM
- COCCS(=O)(=O)N[C@H]1CCc2c(C(=O)Nc3ccc(F)c(Cl)c3)ccc(F)c21 [Compound 182, (S)—N-(3-Chloro-4-fluorophenyl)-7-fluoro-1-((2-methoxyethyl)sulfonamido)-2,3-dihydro-1H-indene-4-carboxamide] — 7.8-fold lower, 0.59 µM
- CCS(=O)(=O)N[C@H]1CCc2c(C(=O)Nc3ccc(F)c(Cl)c3)ccc(F)c21 [Compound 232, (S)—N-(3-Chloro-4-fluorophenyl)-1-(ethylsulfonamido)-7-fluoro-2,3-dihydro-1H-indene-4-carboxamide] — 19-fold lower, 0.24 µM

Same assay, conditions: Hepatitis B virus, HepDE19, 168 h, read-out: DE-19 bDNA EC50 (μM), HepDE19 cells, inhibition of rcDNA formation, 7 day incubation, top concentration 25 μM

Point of comparison: `O=C(N[C@H]1CCc2c(C(=O)Nc3ccc(F)c(Cl)c3)ccc(F)c21)OCC1CCN(C(=O)CO)CC1` [Compound 175, O-(1-(2-Hydroxyacetyl)piperidin-4-yl)methyl, N—(S)-(4-((3-chloro-4-fluorophenyl)carbamoyl)-7-fluoro-2,3-dihydro-1H-inden-1-yl) carbamate], EC50 0.96 µM. Against it:
- O=C(N[C@H]1CCc2c(C(=O)Nc3ccc(F)c(Cl)c3)ccc(F)c21)OCCc1cn[nH]c1 [Compound 110, O-2-(1H-Pyrazol-4-yl)ethyl, N—(S)-(4-((3-chloro-4-fluorophenyl)carbamoyl)-7-fluoro-2,3-dihydro-1H-inden-1-yl) carbamate] — 4.8-fold lower, 0.2 µM
- O=C(Nc1cccnc1)N[C@H]1CCc2c(C(=O)Nc3ccc(F)c(Cl)c3)ccc(F)c21 [Compound 144, (S)—N-(3-Chloro-4-fluorophenyl)-7-fluoro-1-(3-(pyridin-3-yl)ureido)-2,3-dihydro-1H-indene-4-carboxamide] — within 1.5-fold, 0.85 µM
- N#Cc1cc(NC(=O)c2ccc(F)c3c2CC[C@@H]3NC(=O)OCc2ccccn2)ccc1F [Compound 126, O-Pyridin-2-ylmethyl, N—(S)-(4-((3-cyano-4-fluorophenyl)carbamoyl)-7-fluoro-2,3-dihydro-1H-inden-1-yl)carbamate Hydrochloride] — 4-fold lower, 0.24 µM
- COc1ccnc(COC(=O)N[C@H]2CCc3c(C(=O)Nc4ccc(F)c(Cl)c4)ccc(F)c32)c1 [Compound 140, O-(4-Methoxypyridin-2-yl)methyl, N—(S)-(4-((3-chloro-4-fluorophenyl)carbamoyl)-7-fluoro-2,3-dihydro-1H-inden-1-yl) carbamate] — 4.4-fold lower, 0.22 µM
- O=C(Nc1ccc(F)c(Cl)c1)c1ccc(F)c2c1CC[C@@H]2NS(=O)(=O)c1ccccn1 [Compound 184, (S)—N-(3-Chloro-4-fluorophenyl)-7-fluoro-1-(pyridine-2-sulfonamido)-2,3-dihydro-1H-indene-4-carboxamide Hydrochloride] — within 1.5-fold, 0.66 µM
- O=C1CCC[C@@H](COC(=O)N[C@H]2CCc3c(C(=O)Nc4ccc(F)c(Cl)c4)ccc(F)c32)N1 [Compound 212, O—((S)-6-Oxopiperidin-2-yl)methyl, N—((S)-4-((3-chloro-4-fluorophenyl)carbamoyl)-7-fluoro-2,3-dihydro-1H-inden-1-yl) carbamate] — 3.6-fold lower, 0.27 µM
- O=C(N[C@H]1CCc2c(C(=O)Nc3ccc(F)c(Cl)c3)ccc(F)c21)OCc1ncn(COP(=O)(O)O)n1 [Compound 253, O-(1-((Phosphonoxy)methyl)-1H-1,2,4-triazol-3-yl)methyl, N—(S)-(4-((3-chloro-4-fluorophenyl)carbamoyl)-7-fluoro-2,3-dihydro-1H-inden-1-yl) carbamate] — 8-fold lower, 0.12 µM
- Cc1ncsc1CCOC(=O)N[C@H]1CCc2c(C(=O)Nc3ccc(F)c(Cl)c3)ccc(F)c21 [Compound 105, O-2-(4-Methylthiazol-5-yl)ethyl, N—(S)-(4-((3-chloro-4-fluorophenyl)carbamoyl)-7-fluoro-2,3-dihydro-1H-inden-1-yl) carbamate] — 5.1-fold lower, 0.19 µM

Same assay, conditions: read-out: DE-19 bDNA EC50; HepDE19 cells, inhibition of rcDNA formation, 7 day incubation, top concentration 25 μM

Point of comparison: `COC(=O)NC1COc2c(C(=O)Nc3ccc(F)c(C)c3)ccc(F)c21` (stereo not drawn) [Compound 202, O-Methyl, N-(4-fluoro-7-((4-fluoro-3-methylphenyl)carbamoyl)-2,3-dihydrobenzofuran-3-yl) carbamate], EC50 0.42 µM. Against it:
- CNC(=O)NC1COc2c(C(=O)Nc3ccc(F)c(C)c3)ccc(F)c21 (single isomer, unassigned) [Compound 203, 4-Fluoro-N-(4-fluoro-3-methylphenyl)-3-(3-methylureido)-2,3-dihydrobenzofuran-7-carboxamide] — higher, > 25 µM
- CNC(=O)NC1COc2c(C(=O)Nc3ccc(F)c(C)c3)ccc(F)c21 (single isomer, unassigned) [Compound 204, 4-Fluoro-N-(4-fluoro-3-methylphenyl)-3-(3-methylureido)-2,3-dihydrobenzofuran-7-carboxamide] — 2.1-fold lower, 0.2 µM
- O=C(NC1COc2c(C(=O)Nc3ccc(F)c(Cl)c3)ccc(F)c21)OCc1ccccn1 (single isomer, unassigned) [Compound 191, O-Pyridin-2-ylmethyl, N-(7-((3-chloro-4-fluorophenyl)carbamoyl)-4-fluoro-2,3-dihydrobenzofuran-3-yl)carbamate] — 43-fold higher, 18 µM
- COC(=O)NC1CSc2c(C(=O)Nc3ccc(F)c(F)c3)ccc(F)c21 (stereo not drawn) [Compound 57, O-Methyl, N-(7-((3,4-difluorophenyl)carbamoyl)-4-fluoro-2,3-dihydrobenzo[b]thiophen-3-yl) carbamate] — higher, > 25 µM
